One may read the IC50 as the point on the concentration scale where inhibition reaches its midpoint. A low value points to greater potency in that assay. As a reminder, the inhibition is the relative decrease from the control value, in per cent. The low end stands for little suppression, the high end for strong suppression.

Assay [1] concerns the target T1, Anoctamin1 (ANO1) (Homo sapiens, UniProt Q5XXA6).
T1 sequence (Q5XXA6 1-986): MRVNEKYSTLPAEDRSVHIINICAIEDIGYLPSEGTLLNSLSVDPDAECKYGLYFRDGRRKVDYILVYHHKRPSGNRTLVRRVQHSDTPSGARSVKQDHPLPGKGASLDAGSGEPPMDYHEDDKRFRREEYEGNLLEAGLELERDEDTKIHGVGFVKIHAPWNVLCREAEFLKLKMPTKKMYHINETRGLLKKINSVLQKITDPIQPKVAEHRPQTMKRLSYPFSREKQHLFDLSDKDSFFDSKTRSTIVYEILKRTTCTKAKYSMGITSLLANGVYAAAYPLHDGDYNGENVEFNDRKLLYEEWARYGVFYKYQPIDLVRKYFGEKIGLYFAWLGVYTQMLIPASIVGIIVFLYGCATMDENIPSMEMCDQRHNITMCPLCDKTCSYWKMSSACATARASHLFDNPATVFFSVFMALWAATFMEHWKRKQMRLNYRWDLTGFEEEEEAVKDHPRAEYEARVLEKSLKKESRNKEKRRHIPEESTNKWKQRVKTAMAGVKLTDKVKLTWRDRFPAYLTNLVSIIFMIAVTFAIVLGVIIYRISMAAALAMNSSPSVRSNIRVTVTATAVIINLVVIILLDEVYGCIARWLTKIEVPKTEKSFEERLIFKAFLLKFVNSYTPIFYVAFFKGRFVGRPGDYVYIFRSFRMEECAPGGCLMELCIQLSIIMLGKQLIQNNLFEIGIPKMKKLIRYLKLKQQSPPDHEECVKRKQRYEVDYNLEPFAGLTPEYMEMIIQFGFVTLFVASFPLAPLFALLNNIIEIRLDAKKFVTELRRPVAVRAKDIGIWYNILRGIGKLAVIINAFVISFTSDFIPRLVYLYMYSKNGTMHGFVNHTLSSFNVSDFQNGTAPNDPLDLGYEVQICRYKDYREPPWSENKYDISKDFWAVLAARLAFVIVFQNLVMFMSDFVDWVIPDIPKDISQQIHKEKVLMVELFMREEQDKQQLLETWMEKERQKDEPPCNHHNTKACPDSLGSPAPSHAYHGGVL
Nature of the assay: apical membrane (short-circuit) current in FRT cells expressing human ANO1; also YFP quenching assay. The class given is cell-based.

Assay [2] has as its target T1, Anoctamin1 (ANO1). Nature of the assay: YFP (F46L/H148Q/I152L) quenching iodide influx assay in FRT cells expressing human ANO1; […] inhibition at […]. The class given is cell-based.

Regarding `COc1cc2c(c(OC)c1C(=O)CC(O)c1ccccc1)C=CC(C)(C)O2` (racemic) [compound 2, Ani-D2], half-maximal inhibition in assay [1] (IC50) was put at 2.64 µM. For `COc1cc2c(c(OC)c1C(=O)/C=C/c1ccccc1)C=CC(C)(C)O2` [compound 1, Ani-D1], the inhibition at 25 µM in assay [2] was > 99%.
